# From paper PMC6128740 (European journal of drug metabolism and pharmacokinetics, 2018)
# Read-outs that look alike come from different tables or passages of the source.
# Tests used:
# [1] = C3 partitioning and plasma protein binding in mouse blood and plasma; type: in vitro ADME
# [2] = Tissue distribution of 14C-C3 in mice; design: species or system C57BL/6J mice; settings: mouse, in vivo
# [3] = mouse, in vivo
# pregnant mouse dams = settings: in vivo; cited from earlier work
# [4] = Stability of C3 in solutions at pH 1 or pH 10; type: physicochemical; settings: pH 1 or pH 10 for >24 h at 37°C
# [5] = mouse, in vivo; for V (volume of distribution): 1.1 mg/kg
# [6] = 10 or 100 μg/ml, 3000 mwco centricon filter
substance,measurement,setting,value
"e,e,e, tris malonic acid C60 [C3]",14C-C3 in the filtrate of the saline control,[1]; [6],73%
same,14C-C3 in the plasma filtrate (free),[1]; [6],13%
same,fraction of blood C3 in the plasma fraction,"[1]; blood from treated animals and naïve blood spiked with 14C-C3, centrifugation",> 99%
same,protein bound,"[1]; mouse plasma, 10 or 100 μg/ml, mean ± SEM",87 ± 0.1%
same,"tissue radioactivity, 7-day pump vs single bolus dose, adjusted for dose",[2],5 times
same,brain uptake,[3],10 % of the administered dose
same,"effects on fertility, pregnancy, viability or anatomy of the offspring",pregnant mouse dams,failed to find any effects
same,stability in solution,[4],"a small fraction of carboxylic acid head-groups were removed, but the cyclopropane carbons were intact"
same,V (volume of distribution),[5]; ip,0.91 ± 0.12 L/kg
same,V (volume of distribution),[5]; iv,0.85 ± 0.08 L/kg
same,Oral bioavailability,[5]; po,~ 10 % of the i.v. administration
